Source: patent publication US20120003270A1, “6-SUBSTITUTED ISOFLAVONOID COMPOUNDS AND USES THEREOF” (priority 2008, published 2012)

What was measured:
AA-induced ear swelling = assay: Murine ear inflammation assay, arachidonic acid (AA); assay type: in vivo, mouse; conditions: 25 mg/kg i/p; for Change in ear thickness (mean ± SD, ×0.01 mm): 1 hr post-AA
Experimental: Groups of 5-6 female BALB/c mice (ARC, WA, Australia), weighing 15-21 g were injected intraperitoneally (i/p) with selected compounds of the formula (I) at 25 mg/kg delivered in polyethylene glycol (PEG) 400: phosphate buffered saline (PBS) 1:1 or ethanol: propanediol:PBS 4:9:7 either 30 min prior to or immediately before the inflammogen was applied to the ears. Mice were anaesthetised using isoflurane and baseline thickness of both ears was measured using a spring micrometer. Each mouse received a total of […] of either AA in ethanol (50 mg/ml or 200 mg/ml) or PMA in either ethanol or acetone (0.2 mg/ml) applied to the inner and outer surfaces of each pinna (i.e. 0.5 mg or 2 mg AA or 2 μg PMA per ear). Mice were anaesthetised again to re-measure the ears at 1 hr post-AA application and 5 hr after PMA. The difference in ear swelling pre- and post-application of inflammogen for each ear was calculated, and the average for the two ears of each mouse taken. The difference in mean swelling of each test group compared to the group given vehicle alone was calculated using a general ANOVA using Dunnett's Multiple Comparison test when multiple compounds were tested in the one experiment or a two-tailed unpaired t-test when only one compound was tested (Prism 4, Graphpad Software).

prostacyclin (PGI2) = assay: 6-keto PGF1α (prostacyclin) synthesis in IL-1β stimulated HUVECs (RIA); assay type: cell-based, human; conditions: overnight, mean+SEM, n=3
Experimental: Cultured human umbilical vein endothelial cells (HUVECs—Vascular Biology Laboratory, Hanson Institute, Adelaide SA) were removed harvested in 0.25% trypsin-EDTA. After quenching and further washing in RPMI-10% FCS, the cells were resuspended in fresh medium at 1-1.5×10^5 cells per ml and plated out in gelatin coated wells at 2 ml per well. After incubation overnight in 5% CO2 at 37° C., the medium was refreshed and the cells returned to the incubator and allowed to equilibrate for approximately 2 h. Test compounds at concentrations of 0, 1, 10 or 100 μM were added to the cells, and 30 minutes later, stimulated by interleukin-1β (IL-1β-10 μl of a 2 ng/ml solution). After overnight incubation at 37° C., supernatants were collected by centrifugation at 2000 rpm for 5 min and stored at −20° C. Production of prostacyclin after overnight incubation was measured by radioimmunoassay (RIA). Because PGI2 is labile in aqueous medium, the stable hydrolysis product 6-keto PGF1α, was measured as a surrogate marker. Results are expressed as mean+SEM, n=3. Differences between means were analysed by one-way ANOVA followed by Tukey's test for multiple comparisons. Differences between means were regarded as significant when p<0.05.

VCAM-1 = assay: TNFα-induced VCAM-1 expression in HAECs (ELISA); assay type: cell-based, human; conditions: TNFα-stimulated HAECs, 405 nm
Experimental: Inhibition of TNFα-stimulated endothelial cell activation was assessed by measuring surface expression of cell adhesion molecules with an ELISA method. Human arterial endothelial cells (HAEC) in growth medium (Cell Applications Inc.) were seeded into 96-well plates at a density of 10,000 cells per well. Plates were incubated overnight at 37° C. in a humidified incubator to allow for cells to become confluent. On the morning of the experiment, TNFα (10 μl, 2 ng/ml) was added to each well, which contained 100 μl of medium. Test compounds were diluted in DMSO-containing medium (2.5% DMSO) to give a concentration of 100 and 300 μM. They were added to wells so that final concentrations were 10 and 30 μM. DMSO-containing medium alone was added to zero concentration control wells. All samples were measured in quadruplicate (4 wells per treatment).
After incubation with a compound of the formula (I), the medium was removed and cells were probed with either non-specific IgG or specific mouse antibodies (VCAM (BD Biosciences −0.1 μg in 100 μL buffered saline with 10% heat-inactivated human serum)).
Adhesion molecule expression was detected by addition of sheep anti-mouse antibody/horseradish peroxidase conjugate. Plates were allowed to stand for 30 minutes—monolayers were then washed, and sheep anti-mouse antibody/horseradish peroxidase conjugate (1:500 in 100 μL HBSS with 10% heat-inactivated human serum and 0.05% Tween 20) was added and left for 30 minutes. After further washing, 150 μL, ABTS substrate (Kirkegaard and Perry Laboratories) was added to each well and allowed to develop for 15 minutes. Optical density was measured at 405 nm with an ELISA reader (Titertek Multiscan, Flow Laboratories).

NFκB = NFκB promoter activity in transfected THP-1 cells (beta-lactamase reporter); assay type: cell-based, human; conditions: for Inflammatory index: TNFα 7.5 ng/ml, 5 h
Experimental: The assay utilizes a genetically modified THP-1 cell line and GeneBLAzer® beta-lactamase technology (Invitrogen Corp). The human THP-1 monocyte/macrophages contain a stably-transfected beta-lactamase reporter gene under control of the NFkB response element. They respond to stimulation with TNFα, which leads to activation of the NFkB signaling pathway. Co-incubation of cells with TNFα and test material allows quantitative determination of the ability of test material to inhibit TNFα-stimulated beta-lactamase production. An inflammatory index was calculated as the ratio of beta-lactamase product to beta-lactamase substrate.
In brief, genetically modified THP-1 cells were seeded into wells of a 96-well plate (50×10^3 cells/well) in the presence of RPMI 1640 medium (70 μl). TNFα was added to each well (10 μl) to give a final concentration of 7.5 ng/ml. Dialyzed bovine serum was added (10 μl). Test compounds were dissolved in DMSO (10 μL) (5 wells). Each plate contained a no-cell control (4 wells), a no-serum control (4 wells) and two serum controls. Plates were incubated for 5 h at 37° C. to allow for NFkB-stimulated beta-lactamase production. LiveBLAzer™ FRET B/G Substrate (CCF4-AM) substrate was then added to the assay. CCF4-AM is a Förster resonance energy transfer (FRET) based substrate for beta-lactamase developed by Invitrogen Corp. Once CCFA-AM enters a cell, it is converted to negatively charged CCF4 by endogenous esterases. Excitation of this substrate at 409 nm leads to efficient FRET between the coumarin and fluorescein moieties, resulting in a green fluorescence detectable at 530 nm. The presence of beta-lactamase leads to cleavage of CCF4 and results in a loss of FRET, resulting in a robust blue fluorescent signal detectable at 460 nm. Thus, activity of beta-lactamase (a marker of NFkB-promoter activity) is measured as a product to substrate ratio (blue/green fluorescence ratio: 460 nm/530 nm).

Row | Compound | % Change compared with vehicle (AA-induced ear swelling) [%] | Change in ear thickness (mean ± SD, ×0.01 mm) (AA-induced ear swelling) [×0.01 mm] | PGF1α (prostacyclin (PGI2); 1 μM) [pg/mL] | PGF1α (prostacyclin (PGI2); 10 μM) [pg/mL] | PGF1α (prostacyclin (PGI2); 100 μM) [pg/mL] | VCAM-1 expression, Absorbance (VCAM-1; 10 μM) | VCAM-1 expression, Absorbance (VCAM-1; 30 μM) | Inflammatory index (NFκB; 10 μM, vehicle 8.92 ± 0.22) | Inflammatory index (NFκB; 30 μM, vehicle 11.56 ± 0.49) | Inflammatory index (NFκB; 100 μM, vehicle 9.48 ± 0.14) | Effect on promoter activity of NFκB (in words) (NFκB; THP-1 cells, TNFα-stimulated) | PGF1α (pg/ml) (prostacyclin (PGI2); 10 μM)
1 | CN(C)Cc1cc2c(cc1O)OCC(c1ccc(O)cc1)=C2 [Compound (1)] | −7.0 | 24.1 ± 0.1 | 0.667 ± 0.088 | 0.584 ± 0.059 | 0.277 ± 0.07 | 0.164 ± 0.012 | 0.208 ± 0.008 | 9.12 ± 0.26 | 10.05 ± 0.36 | 2.75 ± 0.11 | significantly reduced the promoter activity of NFκB at 10 μM and 100 μM | –
2 | O=C(O)C1CCCN1Cc1cc2c(cc1O)OCC(c1ccc(O)cc1)=C2 (stereo not drawn) [Compound (3)] | −5.9 | 22.2 ± 1.9 | 0.353 ± 0.045 | – | 0.308 ± 0.065 | 0.161 ± 0.16 | 0.215 ± 0.018 | 8.88 ± 0.05 | 11.45 ± 0.86 | 8.59 ± 0.24 | – | 0.335 ± 0.039^ pg/ml
